Experimental findings from patent publication US4888287A, “Rapid differentiation of fungi from bacteria using polyene antibiotics” (Eastman Kodak Company, priority 1986, dated 1989) are described below.

In assay [1] the test system is C. albicans. In words: Inhibition of RIND XXXV reduction by C. albicans, microtitration plate, fluorescence (Example 2, Table III). Format: cell-based, Candida albicans (ATCC 14053). Conditions: Candida albicans, 0.5 h, C. albicans (yeast), 37° C., 30 min, read-out: Corrected Percent Inhibition. On the procedure:
(§1) gram-negative microorganism Escherichia coli (ATCC 25922), gram-positive microorganism Staphylococcus aureus (ATCC 25923), and Candida albicans yeast cells (ATCC 14053), brain heart infusion broth (BHI) and Sabaroud's dextrose broth (SAB) from Difco Laboratories (Detroit, Michigan, U.S.A.), and Aspergillus flavus (ATCC 20047), a mold from American Type Culture Collection (Rockville, Maryland, U.S.A.).
(§2) E. coli and S. aureus were grown overnight in BHI broth at 37° C. C. albicans and A. flavus were grown overnight at 25° C. in SAB broth with agitation. The cells were harvested by centrifugation, washed and resuspended in 0.05 molar N-2-hydroxyethylpiperazine-N'-2-ethanesulfonic acid (HEPES) buffer (pH 7.8).
(§3) Dispersions containing RIND compounds were prepared by dissolving, for example, RIND VII from Table I above in N,N-dimethylformamide (DMF) at 16 mg compound per ml of solvent. An aliquot (250 μl) of the resulting solution was added to 500 μl of TRITON X-100 surfactant. This mixture was then added dropwise with stirring to 25 ml of 0.05 molar HEPES buffer. A solution containing a water-compatible RIND compound (for example, RIND XXXV) was prepared by dissolving the compound in N,N-dimethylformamide which had been acidified with 0.1% sulfuric acid (16 mg RIND compound per ml of solvent).
(§4) A composition was prepared from the following components: 100 μl RIND XXXV solution (16 mg RIND compound per ml of acidified N,N-dimethylformamide), 200 μl glucose solution (10% in water), 200 μl trimethyl-1,4-benzoquinone ETA solution (1.5 mg/ml methanol) and 10 ml HEPES buffer.
(§5) Test solutions were prepared using the following reagents: 50 μl HEPES buffer, 50 μl filipin polyene antibiotic (12.5 mg/ml dimethylsulfoxide)(serial dilutions of buffer and antibiotic solutions were performed to obtain various antibiotic concentrations), 50 μl of the appropriate cell suspensions, that is, E. coli (about 10^8 cells/ml), S. aureus (about 10^8 cells/ml), C. albicans (about 10^7 cells/ml) and A. flavus, and […] of the RIND composition described above.
(§6) Control solutions were prepared as described in Example 1. Relative fluorescence was measured using a Dynatech MICROFLUOR Reader (Dynatech Laboratories, Alexandria, Virginia) modified to read at excitation 540 nm and emission 620 nm, at zero time and after incubation at 37° C. for 30 minutes. The change in relative fluorescence was then determined as the difference of the two values.

Assay [2] has as its system A. flavus. The assay is described as follows: Inhibition of RIND XXXV reduction by A. flavus (mold), microtitration plate, fluorescence (Example 2, Table III). In kind it is cell-based, Aspergillus flavus (ATCC 20047). Conditions: Aspergillus flavus, 0.5 h, 37° C., 30 min, read-out: Corrected Percent Inhibition. The procedure: as §1, §2, §3, §4, §5, §6
In assay [3] the test system is E. coli. In words: Inhibition of MTT tetrazolium salt reduction by E. coli, microtitration plate (Example 3, Table IV). The note with it: Escherichia coli, 0.5 h, E. coli (gram -), 540 nm, 37° C., 30 min, read-out: Corrected Percent Inhibition. Format: cell-based, Escherichia coli (ATCC 25922). On the procedure: as §1, §2
(§7) The differentiations of yeast and mold from bacteria were carried out in microtitration plates. The cell suspensions used were like those described in Example 2. The reducible compound used was 3-(4,5-dimethyl-2-thiazolyl)-2,5-diphenyl-2H-tetrazolium bromide (MTT). A composition containing MTT was prepared with the following components: 200 μl MTT solution (5 mg/ml methanol), 200 μl glucose solution (10% glucose in water), 200 μl trimethyl-1,4-benzoquinone ETA and 12 ml of HEPES buffer (0.05 molar, pH 7.8).
as §5, with “components:” for “reagents:”, “suspension, i.e.” for “suspensions, that is,”, “MTT” for “RIND”, “noted” for “described”, “above. Cell Controls contained all reagents except the antibiotic. Background was measured with buffer. Solution Controls contained all reagents except cells.” for “above.”
(§8) Optical density measurements were made at 540 nm using a commercially available spectrophotometer, and the change in optical density (ΔOD) was determined after 30 minutes at 37° C. […] It is apparent that the concentration effective for differentiation of yeast is different than for mold. However, it is well within the skill of a worker in the art to determine the appropriate concentration for a given test.
(Tetrazolium assays rely on reduction of a dye to a coloured formazan, in cell work by metabolically active cells.)

The test system of assay [4] is A. flavus. The assay is described as follows: Inhibition of MTT tetrazolium salt reduction by A. flavus (mold), microtitration plate (Example 3, Table IV). Conditions: Aspergillus flavus, 0.5 h, 540 nm, 37° C., 30 min, read-out: Corrected Percent Inhibition. In kind it is cell-based, Aspergillus flavus (ATCC 20047). The procedure:
as §1, §2, §7
as §5, with “components:” for “reagents:”, “suspension, i.e.” for “suspensions, that is,”, “MTT” for “RIND”, “noted” for “described”, “above. Cell Controls contained all reagents except the antibiotic. Background was measured with buffer. Solution Controls contained all reagents except cells.” for “above.”
as §8

The subject of assay [5] is E. coli. In words: Inhibition of RIND XXXV reduction by E. coli, dry analytical element (Example 4, Table V). Format: cell-based, Escherichia coli (ATCC 25922). Conditions: E. coli (gram -), 37° C., 30 min. On the procedure:
as §1, §2
(§9) Dispersions containing RIND compounds were prepared by dissolving, for example, RIND VII from Table I above in N,N-dimethylformamide (DMF) at 16 mg compound per ml of solvent. An aliquot (250 μl) of the resulting solution was added to 500 μl of TRITON X-100 surfactant. […]
(§10) A standard paper punch was used to cut circular elements (about 0.6 cm in diameter) from the dried strips. […] Buffer solution was applied to separate elements for background readings.
(§11) Relative fluorescence (excitation at 540 nm and emission at 620 nm) was measured using a Dynatech MICROFLUOR reader at zero time and after 30 minutes incubation at 37° C., and the change in relative fluorescence was determined.

For assay [6], the system named is C. albicans. The assay is described as follows: Inhibition of RIND XXXV reduction by C. albicans, dry analytical element (Example 4, Table V). In kind it is cell-based, Candida albicans (ATCC 14053). The note with it: C. albicans (yeast), 37° C., 30 min. The procedure:
as §1, §2, §9, §10, §11

In general, inhibition refers to the percentage by which the read-out fell short of the control. With `CCCCC[C@@H](O)[C@H]1C(=O)O[C@H](C)[C@@H](O)/C=C/C=C/C=C/C=C/C=C(\C)[C@@H](O)C[C@H](O)C[C@H](O)C[C@H](O)C[C@H](O)C[C@H](O)C[C@@H]1O` [Filipin, filipin], the inhibition at 260 µg/mL with C. albicans [1] (0.26 mg/ml) worked out at 56.8%; with A. flavus [2] (0.26 mg/ml), 31.9%; in the assay with E. coli [3] (0.26 mg/ml) it was 0%; with A. flavus [4] (0.26 mg/ml), 0%. Also, the inhibition at 520 µg/mL with C. albicans [1] (0.52 mg/ml) came out at 71%; with A. flavus [2] (0.52 mg/ml) it was 42.5%; with E. coli [3] (0.52 mg/ml), 0%; in the assay with A. flavus [4] (0.52 mg/ml), 10.3%. Moreover, the inhibition at 1040 µg/mL with C. albicans [1] (1.04 mg/ml) was 80.7%; with A. flavus [2] (1.04 mg/ml), 49.8%; in the assay with E. coli [3] (1.04 mg/ml), 0%; in the assay on A. flavus [4] (1.04 mg/ml) it was 19%. The inhibition at 2080 µg/mL is 86.8% in the assay with C. albicans [1] (2.08 mg/ml), 64.9% with A. flavus [2] (2.08 mg/ml), 0% with E. coli [3] (2.08 mg/ml) and 98.3% in the assay on A. flavus [4] (2.08 mg/ml). Besides, the results for the “Corrected Percent Inhibition” value with E. coli [5] and with C. albicans [6] were 18% and 76%, respectively.
